Experiments:
αS fibrils [1] = target: T1, αS fibrils (Homo sapiens, UniProt P37840); assay: Excitation spectra with αS fibrils; assay type: physicochemical; settings: dye 10 μM; for λex, maximum excitation wavelength: presence of αS PFFs (+), PFFs 50 μM, represents the bound form of dye; for λex: presence of αS PFFs, PFF 50 μM
T1 construct: intein-His6 (C, cleaved yes); made in house; host or cells: Escherichia coli BL21
Procedure: (§1) Excitation spectral measurements were performed using a PTI QuantaMaster™ 40 fluorescence spectrometer. Excitation spectra of 10 μM probes (concentrated stock solution prepared as 10 mM in DMSO) (7j, 7k, 7l, and 7m) in PBS buffer were measured in the absence and presence of 50 μM αS fibrils (stock solution 100 μM αS fibrils in PBS buffer).
Excitation spectra with αS fibrils. Excitation spectral measurements were performed using a PTI QuantaMaster 40 fluorescence spectrometer. Excitation spectra of 10 μM probes (concentrated stock solution prepared as 10 mM in DMSO) (5j and 5k) in PBS buffer were measured in the absence and presence of 50 μM αS fibrils (stock solution 100 μM αS fibrils in PBS buffer).

αS fibrils [2] = target: T1, αS fibrils; assay: Absorbance spectra with αS fibrils; assay type: physicochemical; settings: for λabs / λabs, maximum absorption wavelength: dye 10 μM; for ε / E, molar absorptivity (ε): measured at λabs; for λabs, maximum absorption wavelength / E, molar absorptivity (ε): presence of αS PFFs (+); for λabs, maximum absorption wavelength: PFFs 50 μM, mixture of bound and unbound dye; for increase in molar absorptivity with αS fibrils: presence versus absence of αS fibrils
Procedure: as §1, with “Absorption” for “Excitation spectral”, “Thermo Scientific Genesys 150 UV Vis” for “a PTI QuantaMaster™ 40 fluorescence”, “Absorption” for “Excitation”
Absorption measurements were performed using Thermo Scientific Genesys 150 UV Vis spectrometer. Absorption spectra of 10 μM probes (concentrated stock solution prepared as 10 mM in DMSO) (5j and 5k) in PBS buffer were measured in the absence and presence of 50 μM αS fibrils (stock solution 100 μM αS fibrils in PBS buffer).

[3] = Solvatochromic measurements; assay type: physicochemical; settings: organic solvents of different polarity
Procedure: The remaining 850 μL solution was used to obtain fluorescence images under a handheld 365 nm UV lamp.
Solvatochromic measurements. […] The remaining 850 μL solution was used to obtain fluorescence images under a handheld 365 nm UV lamp.

αS fibrils [4] = target: T1, αS fibrils; assay: Fluorescence spectra with αS fibrils; assay type: binding; settings: for turn on of fluorescence in the presence of αS PFFs: in vitro generated αS PFFs; for Stokes shift: difference between λex and λem; for λem, maximum emission wavelength: bound dye; for λem: PFF 50 μM; for Stokes shift in the presence of PFFs / emission peaks / emission maxima in the presence of PFFs: αS PFFs
Procedure: as §1, with “Fluorescence” for “Excitation spectral”, “Fluorescence” for “Excitation”, “(7b, 7c, 7d, 7e, 7f, 7g” for “(7j, 7k, 7l,”, “7h)” for “7m)”, “measured by excitation at their absorbance maximum wavelength” for “measured”
Fluorescence spectra with αS fibrils. Fluorescence measurements were performed using a PTI QuantaMaster 40 fluorescence spectrometer. Fluorescence spectra of 10 μM probes (concentrated stock solution prepared as 10 mM in DMSO) (5b-5f and 5h) in PBS buffer were measured by excitation at their absorbance maximum wavelength in the absence and presence of 50 μM αS fibrils (stock solution 100 μM αS fibrils in PBS buffer). […] FIGS. 77A-77F show fluorescence spectra of probes (5b-5f and 5h) with and without αS fibrils. Final concentrations of probes and αS fibrils were 10 μM and 50 μM, respectively. Emission spectra collected at each dye's maximum absorption wavelength. Ex/Em slit widths: 3 nm/3 nm. […] Absorbance is shown in FIG. 78A and FIG. 78B, whereas FIG. 78C and FIG. 78D show excitation spectra of probes 5j and 5k with and without αS fibrils. Final probe and fibrils concentrations were 10 μM and 50 μM, respectively. […] Emission wavelengths were 575 nm for 5j, 580 nm for 5k. Ex/Em slit widths: 3 nm/3 nm. […] Black line indicates incident light (αS fibrils without probe) and blue line indicates sample (αS fibrils with probe). Excitation at λexc=435 nm for 5j and λexc=463 nm for 5k and spectral collection (400-800 nm). Final concentrations of the probe and αS fibrils are the 100 μM. Ex/Em slit widths: 5 nm/5 nm.

[5] = presence of αS PFFs (+), dye 10 μM, PFFs 50 μM

| λex, maximum excitation wavelength (αS fibrils [1]) | λex (αS fibrils [1]) | λabs (αS fibrils [2]; absence of αS PFFs) | ε (αS fibrils [2]; absence of αS PFFs) | λabs, maximum absorption wavelength (αS fibrils [2]) | E, molar absorptivity (ε) (αS fibrils [2]) | λabs (αS fibrils [2]; presence of αS PFFs, PFF 50 μM) | ε (αS fibrils [2]; presence of αS PFFs) | increase in molar absorptivity with αS fibrils (αS fibrils [2]) | solvatochromism / environmental sensitivity [3] | Stokes shift (αS fibrils [4]; [5]) | λem, maximum emission wavelength (αS fibrils [4]; [5]) | Stokes shift (αS fibrils [4]; presence of αS PFFs) | λem (αS fibrils [4]; presence of αS PFFs, dye 10 μM) | Stokes shift in the presence of PFFs (αS fibrils [4]) | emission span across solvents (solvatochromism) [3] | Structure (SMILES) | turn on of fluorescence in the presence of αS PFFs (αS fibrils [4]) | other results |
| --- | --- | --- | --- | --- | --- | --- | --- | --- | --- | --- | --- | --- | --- | --- | --- | --- | --- | --- |
| 435 nm | 435 nm | 372 nm | 15385 M⁻¹ cm⁻¹ | 359 nm | 45956 M⁻¹ cm⁻¹ | 359 nm | 45956 M⁻¹ cm⁻¹ | 3 fold | showed sensitivity to solvent polarity | 140 nm | 575 nm | 140 nm | 575 nm | 140 nm |  | Cc1c(C)n2c(/C=C/c3ccc(N)cc3)c(C)c(=O)n2c1=O [Compound 7j, (E)-3-(4-aminostyryl)-2,5,6-trimethyl-1H,7H-pyrazolo[1,2-a]pyrazole-1,7-dione] | significant turn-on of orange fluorescence | emission peaks / emission maxima in the presence of PFFs (αS fibrils [4]; listed as 5j): 575 nm |
|  | 484 nm | 416 nm | 19024 M⁻¹ cm⁻¹ |  |  | 412 nm | 52234 M⁻¹ cm⁻¹ |  | high levels of solvatochromism |  |  | 136 nm | 620 nm |  |  | Cc1c(C)n2c(/C=C/C=C/c3ccc(N(C)C)cc3)c(C)c(=O)n2c1=O [Compound 7m, 3-((1E,3E)-4-(4-(dimethylamino)phenyl)buta-1,3-dien-1-yl)-2,5,6-trimethyl-1H,7H-pyrazolo[1,2-a]pyrazole-1,7-dione] |  | concentration-dependent shift in the emission maximum with αS fibrils (αS fibrils [4]): binding at multiple sites |
| 463 nm | 463 nm | 393 nm | 20071 M⁻¹ cm⁻¹ | 386 nm | 43864 M⁻¹ cm⁻¹ | 386 nm | 43864 M⁻¹ cm⁻¹ | 2.2 fold | high level of solvatochromism | 117 nm | 580 nm | 117 nm | 580 nm | 117 nm | 490-590 nm | Cc1c(C)n2c(/C=C/c3ccc(N(C)C)cc3)c(C)c(=O)n2c1=O [Compound 7l, (E)-3-(4-(dimethylamino)styryl)-2,5,6-trimethyl-1H,7H-pyrazolo[1,2-a]pyrazole-1,7-dione] | significant turn-on of orange fluorescence | emission maximum bound to αS (αS fibrils [4]): 584 nm; emission peaks / emission maxima in the presence of PFFs (αS fibrils [4]): 580 nm |
|  | 424 nm | 370 nm | 17205 M⁻¹ cm⁻¹ |  |  | 356 nm | 49869 M⁻¹ cm⁻¹ |  |  |  |  | 146 nm | 570 nm |  | 490-590 nm | Cc1c(C)n2c(/C=C/c3ccc(N4CCOCC4)cc3)c(C)c(=O)n2c1=O [Compound 7k, (E)-2,3,6-trimethyl-5-(4-morpholinostyryl)-1H,7H-pyrazolo[1,2-a]pyrazole-1,7-dione] |  |  |

Reference: US20240336617A1, “Substituted Bimane Compounds and Methods of Use Thereof” (THE TRUSTEES OF THE UNIVERSITY OF PENNSYLVANIA, priority 2023, published 2024)
